# Measured values from PMC4747952, “Development of TASP0410457 (TASP457), a novel dihydroquinolinone derivative as a PET radioligand for central histamine H3 receptors” (EJNMMI Research, 2016).
# Key:
# [1] = parameters: method as in K. Kawamura, personal communication, 2015; conditions: mice; 30 min after intravenous injection; pilot assays; ref K. Kawamura, personal communication, 2015; cited from earlier work
# central H3Rs = assay: Receptor occupancy assay, [^11C]TASP0410457-PET, Lassen's plot; assay type: in vivo, monkey; conditions: monkey
# Description: Occupancy of central H3Rs by ciproxifan, a selective antagonist/inverse agonist, was quantified by [^11C]TASP0410457-PET scans of an anesthetized monkey with arterial blood sampling. […] Receptor occupancy of ciproxifan was determined using Lassen’s plot without any reference regions using the following equation: VT^Baseline−VT^Ciproxifan=OccVT^Baseline−VND where VT^Baseline and VT^Ciproxifan are the regional VT values at baseline and in the ciproxifan challenge, respectively, VND is the non-displaceable distribution volume, and Occ is the occupancy.
# H3Rs = target: T1, H3Rs (Rattus norvegicus, UniProt Q9QYN8); assay: In vitro autoradiography, rat brain sections; assay type: binding; conditions: 5 nM radioligand
# T1 construct: from tissue; host or cells: sagittal rat brain sections
# T1 sequence (Q9QYN8 whole entry): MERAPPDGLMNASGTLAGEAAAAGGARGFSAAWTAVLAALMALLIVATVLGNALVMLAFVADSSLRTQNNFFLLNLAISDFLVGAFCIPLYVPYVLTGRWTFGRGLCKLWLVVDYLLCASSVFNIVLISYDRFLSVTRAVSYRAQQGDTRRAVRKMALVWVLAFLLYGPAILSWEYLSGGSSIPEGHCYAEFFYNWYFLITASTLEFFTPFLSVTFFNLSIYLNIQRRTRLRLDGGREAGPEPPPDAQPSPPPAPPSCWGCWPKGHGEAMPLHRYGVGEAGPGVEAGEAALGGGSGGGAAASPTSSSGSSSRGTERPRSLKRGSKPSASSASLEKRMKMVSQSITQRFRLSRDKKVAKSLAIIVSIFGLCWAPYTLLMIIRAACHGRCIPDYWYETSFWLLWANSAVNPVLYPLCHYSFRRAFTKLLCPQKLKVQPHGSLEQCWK
# Description: Twenty-micrometer-thick sagittal rat and monkey brain sections were incubated in an autoradiography buffer containing 5 nM [^11C]TASP0410457 as described in Additional file 1: Supplemental methods. The binding was also performed in the presence of 10 μM of unlabeled TASP0410457, thioperamide, or ciproxifan for the rat sections and 10 μM of TASP0410457 or ciproxifan for the monkey sections to assess the specific radioligand binding.
# (25:75) at a flow rate of 1 mL/min. A representative chromatogram of [11C]TASP0390136 is shown in […]
# Twenty-micrometer-thick sagittal rat brain sections were pre-incubated with autoradiography buffer (50 mM Tris containing 120 mM NaCl, 2 mM KCl, 1 mM MgCl2, and 1 mM CaCl2, pH7.4) for 30 min, then incubated in the autoradiography buffer containing 5 nM [11C]TASP0410457 at 25°C for 1 h. The sections were washed two times with ice-cold autoradiography buffer for 5 min, rinsed with ice-cold water for 10 s, and then quickly dried. The radioactivity retained on the sections was determined using a BAS imaging plate and the BAS5000 system (GE Healthcare, Piscataway, NJ). For a blocking study, brain slices were reacted with [11C]TASP0410457 in the presence of […] of TASP0410457, thioperamide, or ciproxifan.
# Similarly, autoradiography using […] sagittal rhesus monkey brain sections was conducted. […]
# [2] = parameters: method as in earlier work; conditions: humans; at 30 min; ref Kimura et al., manuscript submitted to Eur J Nucl Med Mol Imaging; cited from earlier work
# [3] = Radiochemical stability in the final formulation; assay type: physicochemical; conditions: at 1 h after the end of radiosynthesis
# Description: [^11C]TASP0390136, [^11C]TASP0410457, and [^11C]TASP0434988 were synthesized as shown in Fig. 1a–c (detailed procedures are described in Additional file 1: Supplemental methods) using a homemade automated synthesis system. The radiochemical purities and specific activities of the radioligands, which were analyzed as described in Additional file 1: Supplemental Methods, along with their radiochemical yields and average synthesis times, are summarized in Table 1. Analytical HPLC chromatogram of each radioligand is shown in Additional file 2-4: Figures S1-S3. The radiochemical stabilities of [^11C]TASP0410457 and [^11C]TASP0434988 in the final formulation were >99 % at 1 h and 40 min, respectively, after the end of radiosynthesis.
structure (smiles),measurement,setting,value
[11CH3]Oc1ccc(N2C(=O)CCc3cc(OC4CCN(C5CCC5)CC4)ccc32)cn1 [[^11C]TASP0410457],metabolite share of radioactivity in the brain,[1],approximately 50%
same,specific radioligand binding as share of the radioactivity in the striatum,central H3Rs,more than 80%
same,Non-displaceable distribution volume,central H3Rs; Lassen's plot,4.0 mL/cm^3
same,autoradiographic binding in rat brain sections,H3Rs,abundant specific binding in the striatum and neocortex
same,share of total plasma radioactivity arising from the metabolite,[2],13%
same,radiochemical stability in the final formulation,[3],> 99%
